Data on 14 molecules can be found in patent US6916432B2, “Hair bleach composition and hair dye composition” (Kao Corporation, priority 2000, dated 2005).

The nature of series [1]: partition coefficient (octanol-water) (log P) at 25° C. The following applies: for logP: octanol/water.

Structures are written as SMILES.

`CCCCOCCO` [ethylene glycol mono-n-butyl ether] gave a logP in “physchem” of 0.8.

As for `OC1CCCCC1` [cyclohexanol], the logP in the series “physchem” was 1.2.

Consider `OCCOc1ccccc1` [2-phenoxyethanol], for which the log partition coefficient (logP) in “physchem” is 1.2.

In series [1], `CC(O)COc1ccccc1` (centres unmarked) [1-phenoxy-2-propanol] had a logP of 1.1.

Regarding `CCOCCO` [2-ethoxyethanol], the logP in series [1] was -0.2.

Consider `COCCOCCO` [methoxydiglycol], for which, in series [1] (octanol-water, 25° C.), the “log P (at 25° C.)” value is on record as −0.7.

`OCC(O)CO` [glycerin]: the logP in series [1] was -2.2.

In series [1], `OCCOCc1ccccc1` [2-benzyloxyethanol] came in with a logP of 1.2.

`OCCOCCO` [diethylene glycol]: the logP in “physchem” is -1.3.

Consider `CCCCOCCOCCO` [diethylene glycol mono-n-butyl ether], for which the logP in series [1] worked out at 0.9.

Turning to `CN1CCCC1=O` [N-methylpyrrolidone], in series [1], the logP is -0.5.

Consider `CCN1CCCC1=O` [N-ethylpyrrolidone], for which the logP in series [1] is -0.2.

Regarding `CC(O)CCO` (centres unmarked) [1,3-butanediol], the logP in “physchem” was -1.4.

`CC(O)CO` (centres unmarked) [propylene glycol]: in series [1], the logP was -1.1.
